Series [1] has as its target T1, NR2B containing NMDA receptors (rat cortical cells) (Rattus norvegicus, UniProt P35439+Q00960).
T1 construct: The cells at this in vitro age are believed to express predominantly NR2B containing NMDA receptors; endogenous in cells; host or cells: primary neocortical cell culture from 17 day old rat embryos, 3-7 days in vitro
The series can be described thus: NMDA antagonist potency by intracellular calcium measurement with plate reader fluorimeter in rat cortical cell culture. In kind it is cell-based. Conditions: fluorimetric method. The procedure: Assessment of NMDA Antagonist Potency In Vitro by Measurement of Intracellular Calcium Concentration with a Plate Reader Fluorimeter in Rat Cortical Cell Culture
The cultures were used for the intracellular calcium measurements after 3-7 days in vitro. […] Before the measurement the cells were loaded with a fluorescent Ca^2+-sensitive dye, Fluo-4/AM (2 μM). To stop loading the cells were washed twice with the solution used for the measurement (140 mM NaCl, 5 mM KCl, 2 mM CaCl2, 5 mM HEPES, 5 mM HEPES-Na, 20 mM glucose, 10 μM glycine, pH=7.4). After washing, the test compounds were added to the cells in the above solution (90 μl well). Intracellular calcium measurements were carried out with a plate reader fluorimeter: elevation of Fluo-4-fluorescence and so, intracellular calcium concentration was induced by application of 40 μM NMDA. Inhibitory potency of the test compounds was assessed by measuring the reduction in the calcium elevation in the presence of different concentrations of the compounds.
(§1) Dose-response curves and IC50-values were calculated using data derived from at least three independent experiments. Inhibitory potency of a compound at a single concentration point was expressed as percent inhibition of the NMDA response. Sigmoidal concentration-inhibition curves were fit to the data and IC50 values were determined as the concentration that produces half of the maximal inhibition caused by the compound.

The conditions of series [2]: cited from earlier work.
Series [3] deals with NMRI mice. Briefly: Mouse formalin test, second phase, oral administration. The settings on record: 15 min before formalin, licking 20 to 25 min after injection. In kind it is in vivo. The procedure:
Injection of diluted formalin into the hind paw of rats or mice is known to elicit a biphasic pain-related behaviour measured as time spent by licking/biting of the injured paw. The second phase is generally defined as pain related events detected in the 15-60 min. time interval after formalin injection, with peak activity at around 30 min. It is known that NMDA receptors are involved in the second phase of response to formalin injection and this behavioural response is sensitive to blockade of NMDA receptors [Dickenson, A. and Besson J.-M. (Editors): Chapter 1, pp. 6-7: Animal models of Analgesia; and Chapter 8, pp. 180-183. Mechanism of Central Hypersensitivity: Excitatory Amino Acid Mechanisms and Their Control—In Pharmacology of Pain. Springer-Verlag (Berlin) 1997.] Therefore, we used the second phase of formalin test to characterize the efficacy of compounds in vivo. Inhibition of the second phase of response is considered to indicate an analgesic effect against chemically-induced persistent pain [Hurker, S., et al.: Formalin Test in Mice, a Useful Technique for Evaluating Mild Analgesics, Journal of Neuroscience Methods, 14 (1985) 69-76.]
Male NMRI […] (20-25 g) were used. Prior to the experiment any solid food was withdrawn for approx. 16 hours but the animals had free access to 20% glucose solution. The animals were allowed 1 hour acclimatization period in a glass cylinder (cc. 15 cm in diameter), then moved to an identical cylinder with a mirror placed behind to facilitate observation. The test substances were suspended in 5% tween-80 (10 ml per kg body weight). and administered orally by gavage 15 min before the formalin injection (20 μl of 1% formalin in 0.9& saline injected subcutaneously into the dorsal surface of the right hindpaw). The time spent by licking and biting of the injected paw was measured from 20 to 25 min. after the formalin injection.

In series [4] the target is T2, recombinant NMDA receptors NR1/NR2A (HEK293 cells) (Homo sapiens, UniProt Q12879).
T2 construct: expressed in transfected cells
T2 sequence (Q12879 23-1464, other chains not shown): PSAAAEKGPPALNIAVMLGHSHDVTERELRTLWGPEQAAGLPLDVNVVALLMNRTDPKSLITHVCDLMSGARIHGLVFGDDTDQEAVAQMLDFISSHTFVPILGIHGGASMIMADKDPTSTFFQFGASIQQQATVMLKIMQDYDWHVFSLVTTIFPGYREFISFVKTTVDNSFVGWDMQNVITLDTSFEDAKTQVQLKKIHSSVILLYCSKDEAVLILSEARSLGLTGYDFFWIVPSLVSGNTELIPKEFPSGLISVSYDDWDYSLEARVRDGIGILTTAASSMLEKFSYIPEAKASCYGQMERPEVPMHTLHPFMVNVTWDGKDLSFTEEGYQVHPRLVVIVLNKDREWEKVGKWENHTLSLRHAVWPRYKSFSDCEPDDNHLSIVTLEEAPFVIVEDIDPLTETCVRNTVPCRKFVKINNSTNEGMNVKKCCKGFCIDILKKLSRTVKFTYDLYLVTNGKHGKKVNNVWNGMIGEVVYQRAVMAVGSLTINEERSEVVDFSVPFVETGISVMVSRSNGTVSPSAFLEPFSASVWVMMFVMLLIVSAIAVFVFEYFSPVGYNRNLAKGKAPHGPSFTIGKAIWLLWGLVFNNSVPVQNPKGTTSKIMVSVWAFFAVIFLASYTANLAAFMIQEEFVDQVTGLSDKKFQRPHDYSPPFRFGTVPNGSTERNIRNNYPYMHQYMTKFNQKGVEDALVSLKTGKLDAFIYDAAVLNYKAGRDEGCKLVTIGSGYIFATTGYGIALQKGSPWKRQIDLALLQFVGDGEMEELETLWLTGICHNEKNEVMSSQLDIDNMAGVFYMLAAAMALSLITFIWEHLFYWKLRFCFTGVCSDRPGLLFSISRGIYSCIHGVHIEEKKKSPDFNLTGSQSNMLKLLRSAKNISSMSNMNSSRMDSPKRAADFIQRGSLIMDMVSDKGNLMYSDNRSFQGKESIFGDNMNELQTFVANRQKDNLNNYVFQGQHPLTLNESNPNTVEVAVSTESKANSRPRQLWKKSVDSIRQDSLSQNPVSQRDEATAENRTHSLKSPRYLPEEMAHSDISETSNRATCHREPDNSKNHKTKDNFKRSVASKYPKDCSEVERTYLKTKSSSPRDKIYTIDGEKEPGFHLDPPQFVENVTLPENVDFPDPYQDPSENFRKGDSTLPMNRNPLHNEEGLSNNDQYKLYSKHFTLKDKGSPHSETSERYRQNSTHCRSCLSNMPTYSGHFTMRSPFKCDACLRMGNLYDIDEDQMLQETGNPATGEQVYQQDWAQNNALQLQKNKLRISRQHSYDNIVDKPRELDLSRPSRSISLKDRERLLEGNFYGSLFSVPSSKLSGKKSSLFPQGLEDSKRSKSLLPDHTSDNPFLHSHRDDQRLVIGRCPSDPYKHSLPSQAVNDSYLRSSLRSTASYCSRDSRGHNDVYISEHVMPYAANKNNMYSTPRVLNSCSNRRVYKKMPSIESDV
Briefly: Inhibition of NMDA evoked cytosolic calcium elevation in HEK293 cells transfected with NR1/NR2A. In kind it is cell-based. The settings on record: for inhibition at 15 µM: HEK293. On the procedure: Expression of Recombinant NMDA Receptors
(1997); Neurochemistry International, 43, 19-29. (2003)]. […] Compounds were tested for their inhibitory action on NMDA evoked cytosolic calcium elevations in fluorescent calcium measurements. Studies were performed 48-72 h after addition of the inducing agent. Ketamine (500 μM) was also present during the induction in order to prevent cytotoxicity.
as §1

The test system of series [5] is NMRI mice. Briefly: Spontaneous locomotor activity (LMA) in mice. In kind it is in vivo, mouse. Conditions: oral. On the procedure:
Measurement of Spontaneous Locomotor Activity in Mice
Male NMRI mice weighing 20-22 g were used in the experiments.
Spontaneous locomotor activity was measured in a four-channel activity monitor. The apparatus consisted of acrylic cages (43 cm×43 cm×32 cm) equipped with 2×16 pairs of photocells along all the bottom axis of the cage. An additional array of photocells (16 pairs) was placed along two opposite sides of the cage at the height of 10 cm in order to detect rearing responses.
Experimental groups consisted of 10 animals. Thirty minutes after the oral administration of the test compound or vehicle (tween-80), the animals were individually placed in one of four cages for one hour. Horizontal and vertical movements were determined as the number of beam interruptions for one hour at 15 ruin intervals.
Mean±SE of horizontal activity data of each group was calculated then percentual changes compared to the control (vehicle-treated) group were determined. A compound was considered to cause locomotor stimulation when its effect exceeded 50% increase in beam interruptions. Consequently, doses defined as free from stimulatory action (LMAfree) produced less than 50% increase.

[6] abbreviates: 40 μM NMDA, read-out: Rat cortical cells (NR2B) appr. IC50.

Read-outs that look alike come from different tables or passages of the source. Marks after values point to notes of the source that are not given here. Where only a bound is given, the exact number is not on record here.

T1 sequence (Q00960 27-1482, other chains not shown): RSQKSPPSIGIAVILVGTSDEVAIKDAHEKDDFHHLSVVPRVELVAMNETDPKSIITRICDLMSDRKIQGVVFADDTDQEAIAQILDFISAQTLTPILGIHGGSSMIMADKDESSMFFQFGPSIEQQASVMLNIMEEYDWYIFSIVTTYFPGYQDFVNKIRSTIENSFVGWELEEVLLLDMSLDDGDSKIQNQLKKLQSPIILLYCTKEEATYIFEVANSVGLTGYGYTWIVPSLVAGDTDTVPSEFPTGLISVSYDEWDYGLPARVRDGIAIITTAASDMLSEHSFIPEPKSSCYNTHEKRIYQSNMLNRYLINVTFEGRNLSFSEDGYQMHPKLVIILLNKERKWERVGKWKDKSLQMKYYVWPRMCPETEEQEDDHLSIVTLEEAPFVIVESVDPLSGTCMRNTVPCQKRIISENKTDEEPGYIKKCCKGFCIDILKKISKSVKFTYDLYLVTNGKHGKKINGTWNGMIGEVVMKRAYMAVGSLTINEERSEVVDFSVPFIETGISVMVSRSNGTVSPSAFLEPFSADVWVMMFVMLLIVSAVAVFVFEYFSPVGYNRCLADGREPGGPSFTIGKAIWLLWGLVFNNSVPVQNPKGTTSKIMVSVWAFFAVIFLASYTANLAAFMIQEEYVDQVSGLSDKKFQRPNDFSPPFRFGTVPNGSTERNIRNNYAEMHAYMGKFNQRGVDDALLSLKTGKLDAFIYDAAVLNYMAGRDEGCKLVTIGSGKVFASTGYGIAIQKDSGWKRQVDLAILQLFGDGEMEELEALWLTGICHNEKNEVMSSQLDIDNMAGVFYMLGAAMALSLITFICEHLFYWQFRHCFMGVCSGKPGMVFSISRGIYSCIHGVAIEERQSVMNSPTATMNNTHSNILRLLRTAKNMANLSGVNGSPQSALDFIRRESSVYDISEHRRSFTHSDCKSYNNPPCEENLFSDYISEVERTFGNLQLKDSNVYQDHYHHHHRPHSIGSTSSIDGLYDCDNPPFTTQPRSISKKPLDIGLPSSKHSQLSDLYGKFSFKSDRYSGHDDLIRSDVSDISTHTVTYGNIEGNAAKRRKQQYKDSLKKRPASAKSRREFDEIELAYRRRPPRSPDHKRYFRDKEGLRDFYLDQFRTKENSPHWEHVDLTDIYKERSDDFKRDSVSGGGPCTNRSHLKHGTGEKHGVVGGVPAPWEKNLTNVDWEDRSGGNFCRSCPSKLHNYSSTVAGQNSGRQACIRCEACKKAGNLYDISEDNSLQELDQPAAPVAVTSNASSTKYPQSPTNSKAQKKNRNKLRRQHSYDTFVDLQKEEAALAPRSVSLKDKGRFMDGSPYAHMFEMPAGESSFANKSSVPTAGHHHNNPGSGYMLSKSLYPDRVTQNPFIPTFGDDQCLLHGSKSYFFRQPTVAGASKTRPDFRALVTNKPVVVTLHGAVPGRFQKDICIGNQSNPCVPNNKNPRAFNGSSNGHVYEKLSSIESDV

Take `O=C(Nc1ccc2[nH]c(=S)oc2c1)C(=O)N1CCC(=Cc2ccccc2)CC1` [Compound 6]: in series [1] (setting [6]), the IC50 was in the range of 50 to 500 nM.

Take `Cc1ccc(C=C2CCN(C(=O)C(=O)Nc3ccc4[nH]c(=O)n(C)c4c3)CC2)cc1` [Compound 23]: the concentration for half-maximal inhibition (IC50) in series [1] (setting [6]) was 50 to 500 nM.

`O=C1Cc2cc(NC(=O)C(=O)N3CCC(=Cc4ccc(F)cc4)CC3)ccc2N1` [Compound 42]: in series [1] (setting [6]), the IC50 was 500 to 1000 nM.

For `O=C1COc2cc(NC(=O)C(=O)N3CCC(=Cc4ccc(Cl)cc4)CC3)ccc2N1` [Compound 17], in series [1] (setting [6]), the half-maximal inhibitory concentration (IC50) fell in the range of 500 to 1000 nM.

On to `Cc1ccc(CC2(O)CCN(CCOc3ccc(O)cc3)CC2)cc1` [Ro 63-1908], for which the “effect on locomotor activity” value in series [2] (J. Pharmacol. Exp. Ther. 302 (2002), Behav. Pharmacol. 14 (2003)) is reported as “increase locomotor activity”.

For `COc1ccc(C=C2CCN(C(=O)C(=O)Nc3ccc4[nH]c(=O)n(C)c4c3)CC2)cc1` [Compound 33], the IC50 in series [1] (setting [6]) lay in the range of 50 to 500 nM.

Consider `O=C1Cc2cc(NC(=O)C(=O)N3CCC(=Cc4ccc(Cl)cc4)CC3)ccc2N1` [Compound 14], for which the 50% inhibitory concentration (IC50) in series [1] (setting [6]) is 50 to 500 nM.

As for `Cc1ccc(C=C2CCN(C(=O)C(=O)Nc3ccc4[nH]c(=S)oc4c3)CC2)cc1` [Compound 26], the IC50 in series [1] (setting [6]) lay within 50 to 500 nM.

`O=C(Nc1ccc2[nH]c(=O)oc2c1)C(=O)N1CCC(=Cc2ccc(Cl)cc2)CC1` [Compound 11]: the half-maximal inhibitory concentration (IC50) in series [1] (setting [6]) was less than 50 nM.

Compound `C[C@@H]([C@@H](O)c1ccc(O)cc1)N1CCC(O)(c2ccccc2)CC1` [CP-101,606, (1S,2S)-1-(4-hydroxyphenyl)-2-(4-hydroxy-4-phenylpiperidine-1-yl)-1-propanol] showed a 50% effective dose (ED50) in series [3] greater than 20 mg/kg. In addition, the “effect on locomotor activity” value in series [2] (other group, Neuropharmacology 38 (1999)) is “no such effect was observed”. Besides, the locomotor stimulating effect entry in series [2] (up to 56 mg/kg s.c. and 100 mg/kg i.p., Soc. Neurosc. Abstr. 21 (1995)) was “Lack of locomotor stimulating effect”.

Take `Cn1c(=O)[nH]c2ccc(NC(=O)C(=O)N3CCC(=Cc4ccccc4)CC3)cc21` [Compound 3]: the half-inhibitory concentration (IC50) in series [1] (setting [6]) lay within 50 to 500 nM.

In the case of `O=C(Nc1ccc2[nH]c(=O)oc2c1)C(=O)N1CCC(=Cc2ccc(F)cc2)CC1` [Compound 41], the IC50 in series [1] (setting [6]) is less than 50 nM. For the same compound, the inhibition at 15 µM in series [4] was less than 30%.

Regarding `O=C1COc2cc(NC(=O)C(=O)N3CCC(=Cc4ccccc4)CC3)ccc2N1` [Compound 7], the half-maximal inhibitory concentration (IC50) in series [1] (setting [6]) was 500 to 1000 nM.

For the compound `O=C(Nc1ccc2[nH]c(=O)sc2c1)C(=O)N1CCC(=Cc2ccccc2)CC1` [Compound 5], in series [1] (setting [6]), the IC50 is less than 50 nM. Also, the inhibition at 15 µM in series [4] was less than 30%.

Consider `O=c1[nH]c2ccc([S+]([O-])CCN3CCC(Cc4ccc(F)cc4)CC3)cc2o1` (stereo not drawn) [CI-1041, 6-{2-[4-(4-fluoro-benzyl)-piperidin-1-yl]-ethanesulfinyl}-3H-benzooxazol-2-one], for which the 50% effect level in series [3] (ED50) was put at a dose of 2.4 mg/kg. This compound also yielded an LMA % inc. in series [5] (dose 10 mg/kg) of 137%.

Consider `CS(=O)(=O)Nc1ccc(NC(=O)C(=O)N2CCC(=Cc3ccccc3)CC2)cc1` [Compound 10], for which the concentration for half-maximal inhibition (IC50) in series [1] (setting [6]) was in the range of 50 to 500 nM.

As to `O=C(Nc1ccc2[nH]c(=S)oc2c1)C(=O)N1CCC(=Cc2ccc(Cl)cc2)CC1` [Compound 16], in series [1] (setting [6]), the half-maximal inhibitory concentration (IC50) was 50 to 500 nM.

Take `COc1ccc(C=C2CCN(C(=O)C(=O)Nc3ccc4[nH]c(=O)[nH]c4c3)CC2)cc1` [Compound 32]: the IC50 in series [1] (setting [6]) was less than 50 nM. In series [4], the inhibition at 15 µM is less than 30%.

In the case of `Cc1ccc(C=C2CCN(C(=O)C(=O)Nc3ccc4[nH]c(=O)sc4c3)CC2)cc1` [Compound 25], the concentration for half-maximal inhibition (IC50) in series [1] (setting [6]) was less than 50 nM.

Take `Cc1ccc(CC2CCN(C(=O)C(=O)Nc3ccc4c(c3)CC(=O)N4)CC2)cc1` [B, 2-[4-[4-methyl-benzyl)-piperidin-1-yl]-2-oxo-N-(2-oxo-2,3-dihydro-1H-indol-5-yl)-acetamide]: the median effective dose (ED50) in series [3] turned out to be 0.48 mg/kg. In addition, the LMA % increase in series [5] (dose 3.75 mg/kg) amounted to 72%; in series [5] (dose 7.5 mg/kg), 141%.

Take `Cc1ccc(C=C2CCN(C(=O)C(=O)Nc3ccc(NS(C)(=O)=O)cc3)CC2)cc1` [Compound 30]: in series [1] (setting [6]), the IC50 lay within 50 to 500 nM.

Consider `CS(=O)(=O)Nc1ccc(NC(=O)C(=O)N2CCC(=Cc3ccc(Cl)cc3)CC2)cc1` [Compound 20], for which, in series [1] (setting [6]), the IC50 fell in the range of 50 to 500 nM.

Take `O=C(Nc1ccc2[nH]c(=O)oc2c1)C(=O)N1CCC(=Cc2ccccc2)CC1` [Compound 1, 2-(4-Benzylidene-piperidine-1-yl)-2-oxo-N-(2-oxo-2,3-dihydro-benzooxazol-6-yl)-acetamide]: in series [1] (setting [6]), the IC50 was less than 50 nM. Moreover, the inhibition at 15 µM in series [4] is less than 30%. The same compound yielded a 50% effective dose (ED50) in series [3] of 1 mg/kg. In addition, the LMA % increase is recorded as 35* % in series [5] (dose 60 mg/kg) and 69% in series [5] (dose 120 mg/kg).

For `Cc1ccc(C=C2CCN(C(=O)C(=O)Nc3ccc4[nH]c(=O)[nH]c4c3)CC2)cc1` [Compound 22], in series [1] (setting [6]), the IC50 is less than 50 nM. The inhibition at 15 µM in series [4] was less than 30%.

As to `COc1ccc(C=C2CCN(C(=O)C(=O)Nc3ccc(NS(C)(=O)=O)cc3)CC2)cc1` [Compound 40], the IC50 in series [1] (setting [6]) is less than 50 nM. Besides, in series [4], the inhibition at 15 µM was less than 30%.

Take `Cn1c(=O)[nH]c2ccc(NC(=O)C(=O)N3CCC(=Cc4ccc(Cl)cc4)CC3)cc21` [Compound 13]: the concentration for half-maximal inhibition (IC50) in series [1] (setting [6]) is 50 to 500 nM.

On to `O=C(Nc1ccc2[nH]c(=O)oc2c1)C(=O)N1CCC(Cc2ccccc2)CC1` [A, 2-(4-benzyl-piperidin-1-yl)-2-oxo-N-(2-oxo-2,3-dihydro-benzoxazol-6-yl)-acetamide], for which, in series [3], the 50% effective dose (ED50) stood at 0.85 mg/kg. Further, the LMA % increase in series [5] (dose 1 mg/kg) is 34* %; in series [5] (dose 3 mg/kg), 62%.

As to `Cc1ccc(C=C2CCN(C(=O)C(=O)Nc3ccc4c(c3)OCC(=O)N4)CC2)cc1` [Compound 27], the IC50 in series [1] (setting [6]) was in the range of 50 to 500 nM.

Turning to `O=C(CCN1CCC(Cc2ccc(F)cc2)CC1)c1ccc2[nH]c(=O)oc2c1` [EMD 95885, reference compound], the IC50 in series [1] (reference compounds, read-out: rat cortical cells IC50) turned out to be 35 nM. In addition, the “NR1-3/NR2A % inhibition at 10 μM” value in series [4] (10 μM) was 0.1%.

In series [3], `C[C@]12N[C@H](Cc3ccccc31)c1ccccc12` [MK-801, (+)-5-Methyl-10,11-dihydro-5H-dibenzo[a,d]cyclohepten-5,10-imine] had an ED50 of 0.15 mg/kg. Also, the LMA % inc. came to 114% in series [5] (dose 0.1 mg/kg) and 217% in series [5] (dose 0.3 mg/kg).

On to `O=C(Nc1ccc2[nH]c(=O)sc2c1)C(=O)N1CCC(=Cc2ccc(Cl)cc2)CC1` [Compound 15], for which, in series [1] (setting [6]), the IC50 is less than 50 nM.

For `O=C(Nc1ccc2[nH]c(=O)[nH]c2c1)C(=O)N1CCC(=Cc2ccc(Cl)cc2)CC1` [Compound 12], the IC50 in series [1] (setting [6]) was less than 50 nM.

Values taken from patent US8008326B2, “4-benzyledene-piperidin derivatives” (Richter Gedeon Vegyeszeti Gyar Rt., priority 2004, dated 2011).
